Experimental data reported in article PMC5978884, “Dissection of the antimicrobial and hemolytic activity of Cap18: Generation of Cap18 derivatives with enhanced specificity” (PLoS ONE, 2018).
Where no end group is shown, it is not given here.

Key:
[1] = tested on: Aeromonas salmonicida ATCC33658; assay: microbe, parasite or virus in culture; format: cell-based; conditions: ATCC33658
Method: (§1) All strains were grown in Mueller-Hinton-II medium, except L. monocytogenes which was grown in BHI medium and L. lactis which was grown in MRS medium. Incubation took place aerobically at 37°C, except for Y. ruckeri and A. salmonicida, which were grown aerobically at RT (20 °C), and L. lactis grown aerobically at 30°C. All plates were incubated for 16–21 hours.
(§2) The minimum inhibitory concentrations (MICs) of the AMPs were measured in 96-well microtiter plates according the Clinical and Laboratory Standards Institute (CLSI, formerly National Committee for Clinical Laboratory Standards [NCCLS]). Briefly, liquid Mueller-Hinton-II medium containing increasing concentrations of AMPs is inoculated with a defined number of cells (approx. 10^5 CFUs/ml) in 96-well microtiter plates (polypropylene), whereas each plate also includes a positive growth control and a negative control (sterile control). The range of peptide concentrations analyzed was 0.125–64 μg/ml for the high purity peptides and 0.06–32 μg/ml for peptides of the variant library. After incubation, the MIC is determined by the lowest concentration showing no visible growth. All plates were incubated for 16–20 hours. The MIC of the reference antibiotics was determined by the use of Sensititre panels (Trek Diagnostic Systems Ltd, East Grinstead, UK).

[2] = tested on: Enterococcus faecalis ATCC29212; format: cell-based
Method: as §1, §2

[3] = tested on: Lactococcus lactis IL1403; format: cell-based
Method: as §1, §2

[4] = tested on: Listeria monocytogenes N22-2; format: cell-based
Method: as §1, §2

[5] = tested on: Pseudomonas aeruginosa ATCC27853; format: cell-based
Method: as §1, §2

[6] = tested on: all the tested bacterial species including Gram-positive and Gram-negative bacteria
Method: as §2, with “The range of peptide concentrations analyzed was 0.125–64 μg/ml for the high purity peptides and 0.06–32 μg/ml for peptides of the variant library.” left out
To identify Cap18 variant peptides with changed species specificity, the antimicrobial screening data of Y. ruckeri, A. salmonicida, S. Typhimurium and L. lactis was compared.
In addition, three Cap18 derivatives harboring either a I13F, I13M or G26T substitution were ordered as positive controls. […] The antimicrobial activity of the highly pure peptides was determined by measuring the MIC value of each derivative against the four test strains Y. ruckeri, A. salmonicida, S.Typhimurium and L. lactis (Table 6). […] In addition to the additional screening strains, a wider range of relevant pathogens including Gram-positive and Gram-negative bacteria was analyzed for targeted antimicrobial activity.

[7] = tested on: Salmonella enterica serovar Typhimurium LT2; assay: microbe, parasite or virus in culture; format: cell-based; conditions: LT2
Method: as §1, §2

[8] = tested on: Yersinia ruckeri 392/2003; assay: microbe, parasite or virus in culture; format: cell-based
Method: as §1, §2

[9] = tested on: Escherichia coli ATCC25922; format: cell-based
Method: as §1, §2

| MIC A. salmonicida ATCC33658 [1] [µg/mL] | MIC E. faecalis ATCC29212 [2] [µg/mL] | MIC L. lactis IL1403 [3] [µg/mL] | MIC L. monocytogenes N22-2 [4] [µg/mL] | MIC P. aeruginosa ATCC27853 [5] [µg/mL] | MIC against all the tested bacterial species [6] [µg/mL] | MIC A. salmonicida [1] [µg/mL] | MIC S. Typhimurium [7] [µg/mL] | MIC S. Typhimurium LT2 [7] [µg/mL] | MIC Y. ruckeri [8] [µg/mL] | MIC Y. ruckeri 392/2003 [8] [µg/mL] | MIC E. coli ATCC25922 [9] [µg/mL] | MIC L. lactis [3] [µg/mL] | Sequence |
| --- | --- | --- | --- | --- | --- | --- | --- | --- | --- | --- | --- | --- | --- |
| 8 | ≥64 | ≥64 | 32 | 16 | – | 8 | 4 | 8 to 16 | 16 | 32 | ≥64 | – | GLRKRLRKFRNKIKEKLKKIGQKGQGLLPKLAPRTDY [Peptide 27] |
| 16 | ≥64 | 32 | 32 | 8 | – | 16 | 4 | 8 | 16 | 32 | ≥64 | – | GLRKRLRKFRNKIKEKLKKIGQKIQGPLPKLAPRTDY [Peptide 31] |
| 4 | 8 | 2 | 4 | 8 | – | – | – | 4 to 8 | – | 2 to 4 | 4 to 8 | – | GLRKRLRKFRNKIKEKLKKIGQKIQTLLPKLAPRTDY [Peptide 30] |
| – | – | – | 32 | – | ≥ 32 | – | – | 32 | – | – | – | – | GLRKRLRKFRNKIKEKLKKIGQKNQGLLPKLAPRTDY [Peptide 28] |
| 8 | ≥64 | 32 | 16 to 32 | 8 to 16 | – | 8 | 4 | 8 | 16 | 16 | 32 to 64 | – | GLRKRLRKFRNKIKEKLKKIGQKSQGLLPKLAPRTDY [Peptide 29] |
| 16 | 16 | ≥64 | 16 | 16 | – | 4 | 8 | 16 | 4 | 16 | 16 | – | GLRKRLRKFRNKIKEKLKKILQKIQGLLPKLAPRTDY [Peptide 24] |

Continued, sequence first:

| Sequence | MIC A. salmonicida ATCC33658 [1] [µg/mL] | MIC E. faecalis ATCC29212 [2] [µg/mL] | MIC L. lactis IL1403 [3] [µg/mL] | MIC L. monocytogenes N22-2 [4] [µg/mL] | MIC P. aeruginosa ATCC27853 [5] [µg/mL] | MIC against all the tested bacterial species [6] [µg/mL] | MIC A. salmonicida [1] [µg/mL] | MIC S. Typhimurium [7] [µg/mL] | MIC S. Typhimurium LT2 [7] [µg/mL] | MIC Y. ruckeri [8] [µg/mL] | MIC Y. ruckeri 392/2003 [8] [µg/mL] | MIC E. coli ATCC25922 [9] [µg/mL] | MIC L. lactis [3] [µg/mL] |
| --- | --- | --- | --- | --- | --- | --- | --- | --- | --- | --- | --- | --- | --- |
| GLRKRLRKFRNKIKEKDKKIGQKIQGLLPKLAPRTDY [Peptide 16] | ≥64 | ≥64 | ≥64 | ≥64 | ≥64 | ≥ 32 | – | – | – | – | – | – | – |
| GLRKRLRKFRNKIKEKLKKNGQKIQGLLPKLAPRTDY [Peptide 22] | 16 | ≥64 | ≥64 | 16 to 32 | 8 to 16 | – | 4 | 4 | 8 to 16 | 16 | ≥64 | ≥64 | – |
| GLRKRLRKFRNKIKEKLPKIGQKIQGLLPKLAPRTDY [Peptide 19] | 2 to 4 | ≥64 | 32 | 32 to 64 | 16 | – | 2 | 4 | 4 | – | 32 | 8 to 16 | – |
| GLRKRLRKFRNKIKEKPKKIGQKIQGLLPKLAPRTDY [Peptide 18] | ≥64 | ≥64 | ≥64 | ≥64 | ≥64 | ≥ 32 | – | – | ≥64 | – | – | ≥64 | – |
| GLRKRLRKFRNKIKELLKKIGQKIQGLLPKLAPRTDY [Peptide 13] | 16 | 16 | ≥64 | 8 to 16 | 16 to 32 | – | 4 | 4 | 16 | 4 | 16 | 16 | – |
| GLRKRLRKFRNKIKEMLKKIGQKIQGLLPKLAPRTDY [Peptide 14] | 8 to 16 | 32 | ≥64 | 16 | 16 to 32 | – | 4 | 4 | 16 | 4 | 8 to 16 | 16 | – |
| GLRKRLRKFRNKIKEYLKKIGQKIQGLLPKLAPRTDY [Peptide 15] | 16 | 16 | ≥64 | 8 to 16 | 16 | – | 4 | 8 | 16 | 8 | 8 to 16 | 16 | – |
| GLRKRLRKFRNKMKEKLKKIGQKIQGLLPKLAPRTDY [Peptide 6] | 4 | 8 to 16 | 2 | 4 | 8 to 16 | – | – | – | 8 | – | 4 | 8 to 16 | – |
| GLRKRLRKFRNKQKEKLKKIGQKIQGLLPKLAPRTDY [Peptide 7] | 8 | 32 | ≥64 | 16 | 8 | – | 4 | 4 | 4 to 8 | – | 8 | 16 to 32 | – |
| GLRKRLRKFRNKSKEKLKKIGQKIQGLLPKLAPRTDY [Peptide 8] | 4 | ≥64 | ≥64 | 32 | 8 to 16 | – | 2 | 4 | 8 | – | 8 to 16 | 16 | 8 |
| GLRKRPRKFRNKIKEKLKKIGQKIQGLLPKLAPRTDY [Peptide 1] | 8 to 16 | 32 | ≥64 | 32 | ≥64 | – | 8 | 4 | 8 | – | 64 | 8 | 8 |
